Measured values: patent US12629374B2, “Antimalarial agents” (Merck Sharp & Dohme LLC, priority 2020, dated 2026)

Each compound was assayed on ring stage parasites (assay: Parasite growth potency assay, 72 hours, LDH readout). Settings: 72 h, parasite growth measured by LDH assay after 72 hours at 37° C.; 0.7% rings, 2% haematocrit; read-out: EC50.
Assay type: cell-based
Method in brief: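 Parasite growth was quantified by LDH assay after a −80 °C freeze-thaw. Before that, compound was incubated for 72 h at 37 °C under humidified gas with ring-stage cultures adjusted to 0.7% parasitemia and 2% haematocrit in serum- and albumax-supplemented RPMI-Hepes.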

First: CCC1(CC)CC(=O)N([C@H](Cc2ccccc2)c2cccc(C(=O)N[C@H]3CCOc4ccccc43)c2)C(=N)N1 [Example 40, [1-[1-[3-[[(4S)-chroman-4-yl]carbamoyl]phenyl]-2-phenyl-ethyl]-4,4-diethyl-6-oxo-hexahydropyrimidin-2-ylidene]ammonium; 2,2,2-trifluoroacetate]
Second: C=CC[C@H](c1cccc(C(=O)N[C@H]2CCOc3ccccc32)c1)N1C(=N)NC(CC)(CC)CC1=O [Example 41, [1-[1-[3-[[(4S)-chroman-4-yl]carbamoyl]phenyl]but-3-enyl]-4,4-diethyl-6-oxo-hexahydropyrimidin-2-ylidene]ammonium; 2,2,2-trifluoroacetate]
The EC50 of the first is 11-fold higher: 9.7 nM for the first, 0.9 nM for the second.

Compared with `CCC1(CC)NC(=N)N(Cc2cc(F)cc(C(=O)N[C@H]3CCOc4ccccc43)c2)C(=O)C1C` (stereo partly drawn) [Example 42, [1-[[3-[[(4S)-chroman-4-yl]carbamoyl]-5-fluoro-phenyl]methyl]-4,4-diethyl-5-methyl-6-oxo-hexahydropyrimidin-2-ylidene]ammonium; 2,2,2-trifluoroacetate], `CCC1(CC)NC(=N)N(Cc2cc(F)cc(C(=O)N[C@@H]3c4ccccc4C[C@H]3O)c2)C(=O)C1C` (stereo partly drawn) [Example 48, [4,4-diethyl-1-[[3-fluoro-5-[[(1R,2R)-2-hydroxyindan-1-yl]carbamoyl]phenyl]methyl]-5-methyl-6-oxo-hexahydropyrimidin-2-ylidene]ammonium; 2,2,2-trifluoroacetate] is 2-fold lower in EC50: 10.3 nM for the first, 5.2 nM for the second. The second is the more potent here.

Going from `CC[C@]1(C(C)C)CC(=O)N(Cc2cc(F)cc(C(=O)N[C@H]3CCOc4ccccc43)c2)C(=N)N1` [Example 44, [(4R)-1-[[3-[[(4S)-chroman-4-yl]carbamoyl]-5-fluoro-phenyl]methyl]-4-ethyl-4-isopropyl-6-oxo-hexahydropyrimidin-2-ylidene]ammonium; 2,2,2-trifluoroacetate] to `CC[C@@]1(C(C)C)CC(=O)N(Cc2cc(F)cc(C(=O)N[C@H]3CCOc4ccccc43)c2)C(=N)N1` [Example 60, [(4S)-1-[[3-[[(4S)-chroman-4-yl]carbamoyl]-5-fluoro-phenyl]methyl]-4-ethyl-4-isopropyl-6-oxo-hexahydropyrimidin-2-ylidene]ammonium; 2,2,2-trifluoroacetate], the EC50 rises from 2.6 nM to 5.8 nM (2.2-fold).

First: CC[C@]1(C(C)C)CC(=O)N(Cc2cc(F)cc(C(=O)N[C@@H]3c4ccccc4C[C@H]3O)c2)C(=N)N1 [Example 45, [(4R)-4-ethyl-1-[[3-fluoro-5-[[(1R,2R)-2-hydroxyindan-1-yl]carbamoyl]phenyl]methyl]-4-isopropyl-6-oxo-hexahydropyrimidin-2-ylidene]ammonium; 2,2,2-trifluoroacetate]
Second: CC[C@@]1(C(C)C)CC(=O)N(Cc2cc(F)cc(C(=O)N[C@@H]3c4ccccc4C[C@H]3O)c2)C(=N)N1 [Example 61, [(4S)-4-ethyl-1-[[3-fluoro-5-[[(1R,2R)-2-hydroxyindan-1-yl]carbamoyl]phenyl]methyl]-4-isopropyl-6-oxo-hexahydropyrimidin-2-ylidene]ammonium; 2,2,2-trifluoroacetate]
The EC50 of the first is 2.3-fold lower: 2.6 nM for the first, 6.1 nM for the second. The first is the more potent here.

Compared with `CC[C@]1(CC(C)C)CC(=O)N(Cc2cc(F)cc(C(=O)N[C@H]3CCOc4ccccc43)c2)C(=N)N1` [Example 46, [(4S)-1-[[3-[[(4S)-chroman-4-yl]carbamoyl]-5-fluoro-phenyl]methyl]-4-ethyl-4-isobutyl-6-oxo-hexahydropyrimidin-2-ylidene]ammonium; 2,2,2-trifluoroacetate], `CC[C@]1(CC(C)C)CC(=O)N(Cc2cc(F)cc(C(=O)N[C@@H]3c4ccccc4C[C@H]3O)c2)C(=N)N1` [Example 47, [(4S)-4-ethyl-1-[[3-fluoro-5-[[(1R,2R)-2-hydroxyindan-1-yl]carbamoyl]phenyl]methyl]-4-isobutyl-6-oxo-hexahydropyrimidin-2-ylidene]ammonium; 2,2,2-trifluoroacetate] is 1.6-fold lower in EC50: 10.4 nM for the first, 6.5 nM for the second. The second is the more potent here.

First: CCC[C@H](c1cc(C(=O)N[C@H]2CCOc3ccccc32)ccn1)N1C(=N)NC(CC)(CC)CC1=O [Example 49A, [1-[1-[4-[[(4S)-chroman-4-yl]carbamoyl]pyridin-1-ium-2-yl]butyl]-4,4-diethyl-6-oxo-hexahydropyrimidin-2-ylidene]ammonium; 2,2,2-trifluoroacetate]
Second: CCC[C@@H](c1cc(C(=O)N[C@H]2CCOc3ccccc32)ccn1)N1C(=N)NC(CC)(CC)CC1=O [Example 49B, [1-[1-[4-[[(4S)-chroman-4-yl]carbamoyl]pyridin-1-ium-2-yl]butyl]-4,4-diethyl-6-oxo-hexahydropyrimidin-2-ylidene]ammonium; 2,2,2-trifluoroacetate]
The EC50 of the first is 120-fold lower: 0.7 nM for the first, 85 nM for the second.

Going from `CCC[C@H](c1cncc(C(=O)N[C@H]2CCOc3ccccc32)c1)N1C(=N)NC(CC)(CC)CC1=O` [Example 50, [1-[1-[5-[[(4S)-chroman-4-yl]carbamoyl]pyridin-1-ium-3-yl]butyl]-4,4-diethyl-6-oxo-hexahydropyrimidin-2-ylidene]ammonium; 2,2,2-trifluoroacetate] to `CCC1(CC)CC(=O)N([C@H](CCO)c2cccc(C(=O)N[C@H]3CCOc4ccccc43)c2)C(=N)N1` [Example 59, [1-[1-[3-[[(4S)-chroman-4-yl]carbamoyl]phenyl]-3-hydroxy-propyl]-4,4-diethyl-6-oxo-hexahydropyrimidin-2-ylidene]ammonium; 2,2,2-trifluoroacetate], the EC50 rises from 0.4 nM to 4.7 nM (12-fold). The first is the more potent here.

`CC[C@]1(c2ccccc2)CC(=O)N(Cc2cc(F)cc(C(=O)N[C@H]3CCOc4ccccc43)c2)C(=N)N1` [Example 52, [(4R)-1-[[3-[[(4S)-chroman-4-yl]carbamoyl]-5-fluoro-phenyl]methyl]-4-ethyl-6-oxo-4-phenyl-hexahydropyrimidin-2-ylidene]ammonium; 2,2,2-trifluoroacetate] and `CC[C@]1(c2ccccc2)CC(=O)N(Cc2cc(F)cc(C(=O)N[C@@H]3c4ccccc4C[C@H]3O)c2)C(=N)N1` [Example 53, [(4R)-4-ethyl-1-[[3-fluoro-5-[[(1R,2R)-2-hydroxyindan-1-yl]carbamoyl]phenyl]methyl]-6-oxo-4-phenyl-hexahydropyrimidin-2-ylidene]ammonium; 2,2,2-trifluoroacetate] are within 1.5-fold of each other in EC50: 20.1 nM for the first, 25.3 nM for the second.

Going from `CCC1(CC)CC(=O)N([C@H](CCN2CCOCC2)c2cccc(C(=O)N[C@H]3CCOc4ccccc43)c2)C(=N)N1` [Example 54, [1-[1-[3-[[(4S)-chroman-4-yl]carbamoyl]phenyl]-3-morpholin-4-ium-4-yl-propyl]-4,4-diethyl-6-oxo-hexahydropyrimidin-2-ylidene]ammonium; 2,2,2-trifluoroacetate] to `CCC1(CC)CC(=O)N([C@H](CCN2CCCC2)c2cccc(C(=O)N[C@H]3CCOc4ccccc43)c2)C(=N)N1` [Example 58, [1-[1-[3-[[(4S)-chroman-4-yl]carbamoyl]phenyl]-3-pyrrolidin-1-ium-1-yl-propyl]-4,4-diethyl-6-oxo-hexahydropyrimidin-2-ylidene]ammonium; 2,2,2-trifluoroacetate], the EC50 falls from 5.6 nM to 1.3 nM (4.3-fold).

Compared with `CCC1(CC)CC(=O)N([C@H](CCN2CCOCC2)c2cccc(C(=O)N[C@@H]3c4ccccc4C[C@H]3O)c2)C(=N)N1` [Example 55, [4,4-diethyl-1-[1-[3-[[(1R,2R)-2-hydroxyindan-1-yl]carbamoyl]phenyl]-3-morpholin-4-ium-4-yl-propyl]-6-oxo-hexahydropyrimidin-2-ylidene]ammonium; 2,2,2-trifluoroacetate], `CCC[C@H](c1cncc(C(=O)N[C@@H]2c3ccccc3C[C@H]2O)c1)N1C(=N)NC(CC)(CC)CC1=O` [Example 57, [4,4-diethyl-1-[1-[5-[[(1R,2R)-2-hydroxyindan-1-yl]carbamoyl]pyridin-1-ium-3-yl]butyl]-6-oxo-hexahydropyrimidin-2-ylidene]ammonium; 2,2,2-trifluoroacetate] is 16-fold lower in EC50: 9.8 nM for the first, 0.6 nM for the second. The second is the more potent here.

Compared with `CCC1(CC)CC(=O)N([C@H](CCOC)c2cccc(C(=O)N[C@H]3CCOc4ccccc43)c2)C(=N)N1` [Example 56, [1-[1-[3-[[(4S)-chroman-4-yl]carbamoyl]phenyl]-3-methoxy-propyl]-4,4-diethyl-6-oxo-hexahydropyrimidin-2-ylidene]ammonium; 2,2,2-trifluoroacetate], `CCC[C@H](c1cccc(C(=O)N[C@H]2CCOc3ccccc32)c1)N1C(=N)N[C@@](CC2CC2)(c2ccccc2)CC1=O` [Example 64, [(4R)-1-[(1R)-1-[3-[[(4S)-chroman-4-yl]carbamoyl]phenyl]butyl]-4-(cyclopropylmethyl)-6-oxo-4-phenyl-hexahydropyrimidin-2-ylidene]ammonium; 2,2,2-trifluoroacetate] is 150-fold higher in EC50: 0.5 nM for the first, 75.4 nM for the second. The first is the more potent here.

First: CC[C@@]1(C(F)(F)F)CC(=O)N(Cc2cc(F)cc(C(=O)N[C@H]3CCOc4ccccc43)c2)C(=N)N1 [Example 63, [(4S)-1-[[3-[[(4S)-chroman-4-yl]carbamoyl]-5-fluoro-phenyl]methyl]-4-ethyl-6-oxo-4-(trifluoromethyl)hexahydropyrimidin-2-ylidene]ammonium; 2,2,2-trifluoroacetate]
Second: CCC[C@H](c1cccc(C(=O)N[C@@H]2c3ccccc3C[C@H]2O)c1)N1C(=N)N[C@@](CC2CC2)(c2ccccc2)CC1=O [Example 65, [(4R)-4-(cyclopropylmethyl)-1-[(1R)-1-[3-[[(1R,2R)-2-hydroxyindan-1-yl]carbamoyl]phenyl]butyl]-6-oxo-4-phenyl-hexahydropyrimidin-2-ylidene]ammonium; 2,2,2-trifluoroacetate]
The EC50 of the first is 1.8-fold higher: 80.2 nM for the first, 43.9 nM for the second.

Same assay, conditions: parasite growth measured by LDH assay after 72 hours at 37° C.; 0.7% rings, 2% haematocrit; trifluoroacetate; read-out: EC50

In the case of `CCC1(CC)NC(=N)N(Cc2cc(F)cc(C(=O)N[C@H]3CCOc4ccccc43)c2)C(=O)C1C` (stereo partly drawn) [Example 43, [1-[[3-[[(4S)-chroman-4-yl]carbamoyl]-5-fluoro-phenyl]methyl]-4,4-diethyl-5-methyl-6-oxo-hexahydropyrimidin-2-ylidene]ammonium; 2,2,2-trifluoroacetate], the EC50 is reported as 7.2 nM.
